Among the data in patent publication US12018021B2 (UCB Biopharma SRL, priority 2018, dated 2024) are IC50 values, retold here.

For this experiment, the target named is IgE-Tb / FcεRIα-Y131A-AF488 (Homo sapiens, UniProt P01854). Nature of the experiment: IgE-Tb / FcεRIα-Y131A-AF488 FRET assay (protocol for examples 1 to 233). The format is binding. The settings on record: examples 1 to 233: 5 nM IgE-Tb, 25 nM FcεRIα-Y131A-AF488, incubated 2 hours at room temperature; read-out: Y131A FRET IC50 range. An outline of the steps: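 Compounds (top final concentration usually 10 μM, 3-fold, 10 points, 2% DMSO) incubated 2 h at room temperature with IgE-Tb (5 nM) and FcεRIα-Y131A-AF488 (25 nM). Background from 200 nM unlabelled receptor subtracted; FRET ratio 520/495 nm after 330 nm excitation gave percent inhibition, fitted four-parameter for IC50.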
Chain of IgE-Tb / FcεRIα-Y131A-AF488 (P01854 1-427 limits assumed, stated change not applied): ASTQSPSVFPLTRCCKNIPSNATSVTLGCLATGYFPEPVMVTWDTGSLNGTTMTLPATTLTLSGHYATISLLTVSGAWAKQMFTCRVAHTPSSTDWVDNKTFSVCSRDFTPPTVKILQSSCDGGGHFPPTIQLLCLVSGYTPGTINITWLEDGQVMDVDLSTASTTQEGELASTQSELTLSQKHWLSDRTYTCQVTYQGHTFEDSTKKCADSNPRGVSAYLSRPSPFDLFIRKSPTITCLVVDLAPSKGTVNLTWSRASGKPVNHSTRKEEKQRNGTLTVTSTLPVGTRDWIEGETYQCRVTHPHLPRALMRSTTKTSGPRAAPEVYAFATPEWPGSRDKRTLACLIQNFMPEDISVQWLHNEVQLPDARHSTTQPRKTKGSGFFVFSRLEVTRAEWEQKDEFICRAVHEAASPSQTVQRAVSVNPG
As for `Cc1ccc(NC(=Nc2ccn(C)n2)NC2CCc3sc(NC(=O)C4CC4)c(C(=O)NCC4CC4)c3C2)cc1` (stereo not shown) [Example 177, 2-(Cyclopropanecarbonylamino)-N-(cyclopropylmethyl)-5-[[N′-(1-methylpyrazol-3-yl)-N-(p-tolyl)carbamimidoyl]amino]-4,5,6,7-tetrahydrobenzothiophene-3-carboxamide; formic acid], the half-maximal inhibitory concentration (IC50) lay in the range of 1 to 10 µM.
With `CCNc1nnc(COC)n1C1CCc2sc(NC(=O)C3CC3)c(C(=O)NCC3CC3)c2C1` (stereo not shown) [Example 179, 2-(Cyclopropanecarbonylamino)-N-(cyclopropylmethyl)-5-[3-(ethylamino)-5-(methoxymethyl)-1,2,4-triazol-4-yl]-4,5,6,7-tetrahydrobenzothiophene-3-carboxamide], the IC50 was 1 to 10 µM.
As to `O=C(NCC1CC1)c1c(NC(=O)C2CC2)sc2c1CC(Nc1n[nH]c(-c3cccnc3)n1)CC2` (stereo not shown) [Example 180, 2-(Cyclopropanecarbonylamino)-N-(cyclopropylmethyl)-5-[[5-(3-pyridyl)-1H-1,2,4-triazol-3-yl]amino]-4,5,6,7-tetrahydrobenzothiophene-3-carboxamide], the IC50 is < 1 µM.
The value for `Cc1ccc(OC(=O)NC2CCc3sc(NC(=O)C4CC4)c(C(=O)NCC4CC4)c3C2)cc1` (stereo not shown) [Example 181, p-Tolyl N-[2-(cyclopropanecarbonylamino)-3-(cyclopropylmethylcarbamoyl)-4,5,6,7-tetrahydrobenzothiophen-5-yl]carbamate] was < 1 µM; that for `O=C(NCC1CC1)c1c(NC(=O)C2CC2)sc2c1CC(Nc1ncc3ccccc3n1)CC2` (stereo not shown) [Example 182, 2-(Cyclopropanecarbonylamino)-N-(cyclopropylmethyl)-5-(quinazolin-2-ylamino)-4,5,6,7-tetrahydrobenzothiophene-3-carboxamide] was < 1 µM; that for `O=C(NCC1CC1)c1c(NC(=O)C2CC2)sc2c1CC(Nc1nc3ccccc3o1)CC2` (stereo not shown) [Example 183, 5-(1,3-Benzoxazol-2-ylamino)-2-(cyclopropanecarbonylamino)-N-(cyclopropylmethyl)-4,5,6,7-tetrahydrobenzothiophene-3-carboxamide] was < 1 µM.
For `CCNc1nnc(CO)n1C1CCc2sc(NC(=O)C3CC3)c(C(=O)NCC3CC3)c2C1` (stereo not shown) [Example 184, 2-(Cyclopropanecarbonylamino)-N-(cyclopropylmethyl)-5-[3-(ethylamino)-5-(hydroxymethyl)-1,2,4-triazol-4-yl]-4,5,6,7-tetrahydrobenzothiophene-3-carboxamide], the IC50 was < 1 µM.
For the compound `Cc1cc(Nc2nncn2C2CCc3sc(NC(=O)C4CC4)c(C(=O)NC4CC(F)(F)C4)c3C2)n(C)n1` (stereo not shown) [Example 185, 2-(cyclopropanecarbonylamino)-N-(3,3-difluorocyclobutyl)-5-[3-[(2,5-dimethylpyrazol-3-yl)amino]-1,2,4-triazol-4-yl]-4,5,6,7-tetrahydrobenzothiophene-3-carboxamide], the concentration for half-maximal inhibition (IC50) was < 1 µM.
Turning to `Nc1nccn1[C@H]1CCc2sc(NC(=O)C3CC3)c(C(=O)NCC3CC3)c2C1` [Example 186, (5S)-5-(2-Aminoimidazol-1-yl)-2-(cyclopropanecarbonylamino)-N-(cyclopropylmethyl)-4,5,6,7-tetrahydrobenzothiophene-3-carboxamide], the half-inhibitory concentration (IC50) is < 1 µM.
To `Nc1noc(=O)n1C1CCc2sc(NC(=O)C3CC3)c(C(=O)NCC3CC3)c2C1` (stereo not shown) [Example 187, 5-(3-Amino-5-oxo-1,2,4-oxadiazol-4-yl)-2-(cyclopropanecarbonylamino)-N-(cyclopropylmethyl)-4,5,6,7-tetrahydrobenzothiophene-3-carboxamide] belongs < 1 µM; to `CCNc1nnc(C)n1C1CCc2sc(NC(=O)C3CC3)c(C(=O)NCC3CC3)c2C1` (stereo not shown) [Example 188, 2-(Cyclopropanecarbonylamino)-N-(cyclopropylmethyl)-5-[3-(ethylamino)-5-methyl-1,2,4-triazol-4-yl]-4,5,6,7-tetrahydrobenzothiophene-3-carboxamide], < 1 µM.
`O=C(NCC1CC1)c1c(NC(=O)C2CC2)sc2c1CC(Nc1ncccn1)CC2` (stereo not shown) [Example 191, 2-(Cyclopropanecarbonylamino)-N-(cyclopropylmethyl)-5-(pyrimidin-2-ylamino)-4,5,6,7-tetrahydrobenzothiophene-3-carboxamide]: the IC50 is < 1 µM.
For the compound `O=C(NCC1CC1)c1c(NC(=O)C2CC2)sc2c1CC(Nc1nnco1)CC2` (stereo not shown) [Example 192, 2-(Cyclopropanecarbonylamino)-N-(cyclopropylmethyl)-5-(1,3,4-oxadiazol-2-ylamino)-4,5,6,7-tetrahydrobenzothiophene-3-carboxamide], the IC50 is < 1 µM.
As to `Cc1cc(Nc2nncn2C2CCc3sc(NC(=O)C4CC4)c(C(=O)NC4CC(F)C4)c3C2)n(C)n1` (stereo not shown) [Example 193, 2-(cyclopropanecarbonylamino)-5-[3-[(2,5-dimethylpyrazol-3-yl)amino]-1,2,4-triazol-4-yl]-N-(3-fluorocyclobutyl)-4,5,6,7-tetrahydrobenzothiophene-3-carboxamide], the IC50 is < 1 µM.
The value for `Cc1ccc(N2C(=O)CN=C2NC2CCc3sc(NC(=O)C4CC4)c(C(=O)NCC4CC4)c3C2)cc1` (stereo not shown) [Example 194, 2-(Cyclopropanecarbonylamino)-N-(cyclopropylmethyl)-5-[[5-oxo-1-(p-tolyl)-4H-imidazol-2-yl]amino]-4,5,6,7-tetrahydrobenzothiophene-3-carboxamide] was 1 to 10 µM; that for `CCN(C)c1c(NC2CCc3sc(NC(=O)C4CC4)c(C(=O)NCC4CC4)c3C2)c(=O)c1=O` (stereo not shown) [Example 195, 2-(Cyclopropanecarbonylamino)-N-(cyclopropylmethyl)-5-[[2-[ethyl(methyl)amino]-3,4-dioxo-cyclobuten-1-yl]amino]-4,5,6,7-tetrahydrobenzothiophene-3-carboxamide] was < 1 µM; that for `CS(=N)(=O)NC1CCc2sc(NC(=O)C3CC3)c(C(=O)NCC3CC3)c2C1` (stereo not shown) [Example 196, 2-(Cyclopropanecarbonylamino)-N-(cyclopropylmethyl)-5-[(methylsulfonimidoyl)amino]-4,5,6,7-tetrahydrobenzothiophene-3-carboxamide] was 1 to 10 µM.
`CC(=NC#N)NC1CCc2sc(NC(=O)C3CC3)c(C(=O)NCC3CC3)c2C1` (stereo not shown) [Example 197, 5-[[N-Cyano-C-methyl-carbonimidoyl]amino]-2-(cyclopropanecarbonylamino)-N-(cyclopropylmethyl)-4,5,6,7-tetrahydrobenzothiophene-3-carboxamide]: the 50% inhibitory concentration (IC50) was < 1 µM.
In the case of `O=C(NCC1CC1)c1c(NC(=O)C2CC2)sc2c1CC(n1cnnn1)CC2` (stereo not shown) [Example 198, 2-(Cyclopropanecarbonylamino)-N-(cyclopropylmethyl)-5-(tetrazol-1-yl)-4,5,6,7-tetrahydrobenzothiophene-3-carboxamide], the IC50 is < 1 µM.
As for `Cc1cc(Nc2nncn2C2CCc3sc(NC(=O)C4CC4)c(C(=O)NCC(C)(C)F)c3C2)n(C)n1` (stereo not shown) [Example 200, 2-(cyclopropanecarbonylamino)-5-[3-[(2,5-dimethylpyrazol-3-yl)amino]-1,2,4-triazol-4-yl]-N-(2-fluoro-2-methyl-propyl)-4,5,6,7-tetrahydrobenzothiophene-3-carboxamide], the concentration for half-maximal inhibition (IC50) is < 1 µM.
For the compound `O=C(NCC1CC1)c1c(NC(=O)C2CC2)sc2c1CC(N1CCOCC1)CC2` (stereo not shown) [Example 201, 2-(Cyclopropanecarbonylamino)-N-(cyclopropylmethyl)-5-morpholino-4,5,6,7-tetrahydrobenzothiophene-3-carboxamide], the IC50 was in the range of 1 to 10 µM.
Consider `CCNc1nnc(C(F)(F)F)n1C1CCc2sc(NC(=O)C3CC3)c(C(=O)NCC3CC3)c2C1` (stereo not shown) [Example 202, 2-(Cyclopropanecarbonylamino)-N-(cyclopropylmethyl)-5-[3-(ethylamino)-5-(trifluoromethyl)-1,2,4-triazol-4-yl]-4,5,6,7-tetrahydrobenzothiophene-3-carboxamide], for which the IC50 fell in the range of 1 to 10 µM.
For the compound `O=C(NCC1CC1)c1c(NC(=O)C2CC2)sc2c1CC(Nc1nc(=O)cc[nH]1)CC2` (stereo not shown) [Example 203, 2-(Cyclopropanecarbonylamino)-N-(cyclopropylmethyl)-5-[(4-oxo-1H-pyrimidin-2-yl)amino]-4,5,6,7-tetrahydrobenzothiophene-3-carboxamide], the IC50 was < 1 µM.
Consider `CC(C)NS(=O)(=O)NC1CCc2sc(NC(=O)C3CC3)c(C(=O)NCC3CC3)c2C1` (stereo not shown) [Example 204, 2-(Cyclopropanecarbonylamino)-N-(cyclopropylmethyl)-5-(isopropylsulfamoylamino)-4,5,6,7-tetrahydrobenzothiophene-3-carboxamide], for which the concentration for half-maximal inhibition (IC50) lay in the range of 1 to 10 µM.
As for `N#CN=C(NC1CCc2sc(NC(=O)C3CC3)c(C(=O)NCC3CC3)c2C1)NN1CCOCC1` (stereo not shown) [Example 205, 5-[[N′-Cyano-N-morpholino-carbamimidoyl]amino]-2-(cyclopropanecarbonylamino)-N-(cyclopropylmethyl)-4,5,6,7-tetrahydrobenzothiophene-3-carboxamide], the IC50 lay within 1 to 10 µM.
With `CC(=O)NC1CCc2sc(NC(=O)C3CC3)c(C(=O)NCC3CC3)c2C1` (stereo not shown) [Example 206, 5-Acetamido-2-(cyclopropanecarbonylamino)-N-(cyclopropylmethyl)-4,5,6,7-tetrahydrobenzothiophene-3-carboxamide], the 50% inhibitory concentration (IC50) was 1 to 10 µM.
`CS(=O)(=O)NC1CCc2sc(NC(=O)C3CC3)c(C(=O)NCC3CC3)c2C1` (stereo not shown) [Example 207, 2-(Cyclopropanecarbonylamino)-N-(cyclopropylmethyl)-5-(methanesulfonamido)-4,5,6,7-tetrahydrobenzothiophene-3-carboxamide]: the IC50 was < 1 µM.
As to `CONC(=NC#N)NC1CCc2sc(NC(=O)C3CC3)c(C(=O)NCC3CC3)c2C1` (stereo not shown) [Example 208, 5-[[N′-Cyano-N-methoxy-carbamimidoyl]amino]-2-(cyclopropanecarbonylamino)-N-(cyclopropylmethyl)-4,5,6,7-tetrahydrobenzothiophene-3-carboxamide], the concentration for half-maximal inhibition (IC50) is < 1 µM.

As a reminder, the IC50 is the concentration that inhibits the measured activity by half.
